According to PubChem BioAssay AID248 (DTP/NCI, 2004):
“And” between values parts separate entries of the source, which are not always exact repeats. Equal values may be shown once. Inconclusive results and toxic doses are left out. Cut-off read from the data, not from the text of the source: active = T/C of 150% or more; inactive = T/C below 125%.

Test system: L1210 leukemia ip in BDF1 mice, survival T/C
Test: NCI In Vivo Anticancer Drug Screen. Data for tumor model L1210 Leukemia (intraperitoneal) in B6D2F1 (BDF1) mice
Settings: endpoint: mean survival time, higher = longer survival
How it was run: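 Transplantable tumor model; survival measured in treated vs vehicle control mice. Value = treated/control.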

[1] = dose: 100.0 mg/kg/injection, schedule: Q04DX003 (ip), vehicle: Klucel (hydroxypropylcellulose) (HPC)
[2] = dose: 200.0 mg/kg/injection, schedule: Q04DX003 (ip), vehicle: Klucel (hydroxypropylcellulose) (HPC)
[3] = dose: 400.0 mg/kg/injection, schedule: Q04DX003 (ip), vehicle: Klucel (hydroxypropylcellulose) (HPC)
[4] = dose: 50.0 mg/kg/injection, schedule: Q01DX001 (ip), vehicle: saline
[5] = dose: 100.0 mg/kg/injection, schedule: Q01DX001 (ip), vehicle: saline
[6] = dose: 100.0 mg/kg/injection, schedule: Q04DX003 (ip), vehicle: saline with Tween-80
[7] = dose: 200.0 mg/kg/injection, schedule: Q01DX001 (ip), vehicle: saline
[8] = dose: 200.0 mg/kg/injection, schedule: Q04DX003 (ip), vehicle: saline with Tween-80
[9] = dose: 400.0 mg/kg/injection, schedule: Q01DX001 (ip), vehicle: saline
[10] = dose: 400.0 mg/kg/injection, schedule: Q04DX003 (ip), vehicle: saline with Tween-80

Measured: T/C

CC1(C)C(C)(C)C1(Cl)Cl
inactive: dose: 100.0 mg/kg/injection, schedule: Q01DX009 (ip), vehicle: saline 100 % of control | dose: 100.0 mg/kg/injection, schedule: Q04DX003 (sc), vehicle: olive oil, sesame oil, peanut oil 112 % of control | dose: 200.0 mg/kg/injection, schedule: Q01DX009 (ip), vehicle: saline 100 % of control | dose: 200.0 mg/kg/injection, schedule: Q04DX003 (sc), vehicle: olive oil, sesame oil, peanut oil 96 % of control | dose: 400.0 mg/kg/injection, schedule: Q01DX009 (ip), vehicle: saline 100 % of control | dose: 400.0 mg/kg/injection, schedule: Q04DX003 (sc), vehicle: olive oil, sesame oil, peanut oil 107 % of control

O=C(O)C1(C(=O)O)C=CCCC1
inactive: dose: 100.0 mg/kg/injection, schedule: Q01DX009 (ip), vehicle: saline + alcohol 89 % of control | [1] 100 % of control | dose: 200.0 mg/kg/injection, schedule: Q01DX009 (ip), vehicle: saline + alcohol 102 % of control | [2] 97 % of control | [3] 107 % of control

COc1ccc(C2NC(=O)NC2=O)cc1 (configuration not stated)
inactive: [4] 105 % of control | [5] 105 % of control | [6] 108 % of control | [7] 102 % of control | [8] 103 % of control | [9] 111 % of control | [10] 92 % of control

O=C(Cc1ccc(F)cc1)c1ccccc1
inactive: [6] 98 % of control | [8] 98 % of control | [10] 96 % of control

ClC1=C(Cl)[C@@]2(Cl)[C@H]3[C@H]4C[C@H]([C@@H]5O[C@H]45)[C@H]3[C@@]1(Cl)C2(Cl)Cl
inactive: dose: 1.0 mg/kg/injection, schedule: Q01DX009 (ip), vehicle: acetone 102 % of control | dose: 2.0 mg/kg/injection, schedule: Q01DX009 (ip), vehicle: acetone 93 % of control | dose: 4.0 mg/kg/injection, schedule: Q01DX009 (ip), vehicle: acetone 96 % of control | dose: 8.0 mg/kg/injection, schedule: Q01DX009 (ip), vehicle: acetone 86 % of control | dose: 25.0 mg/kg/injection, schedule: Q01DX001 (ip), vehicle: acetone 102 % of control

COc1ccc(C(C)=O)cc1N
inactive: dose: 100.0 mg/kg/injection, schedule: Q01DX009 (ip), vehicle: Klucel (hydroxypropylcellulose) (HPC) 98 % of control | [1] 94 % of control | dose: 200.0 mg/kg/injection, schedule: Q01DX009 (ip), vehicle: Klucel (hydroxypropylcellulose) (HPC) 104 % of control | [2] 93 % of control | dose: 400.0 mg/kg/injection, schedule: Q01DX009 (ip), vehicle: Klucel (hydroxypropylcellulose) (HPC) 116 % of control | [3] 94 % of control

NC(CO)Cc1ccccc1 (configuration not stated)
inactive: dose: 6.25 mg/kg/injection, schedule: Q01DX009 (ip), vehicle: saline 107 % of control | dose: 6.25 mg/kg/injection, schedule: Q04DX003 (ip), vehicle: saline 100 % of control | dose: 12.5 mg/kg/injection, schedule: Q01DX009 (ip), vehicle: saline 96 % of control | dose: 12.5 mg/kg/injection, schedule: Q04DX003 (ip), vehicle: saline 93 % of control | dose: 25.0 mg/kg/injection, schedule: Q01DX009 (ip), vehicle: saline 102 % of control | dose: 25.0 mg/kg/injection, schedule: Q04DX003 (ip), vehicle: saline 105 % of control | dose: 35.0 mg/kg/injection, schedule: Q01DX009 (ip), vehicle: saline 88 % of control | dose: 55.0 mg/kg/injection, schedule: Q01DX009 (ip), vehicle: saline 98 % of control | dose: 75.0 mg/kg/injection, schedule: Q01DX001 (ip), vehicle: carboxymethylcellulose (CMC) 86 % of control | dose: 80.0 mg/kg/injection, schedule: Q01DX009 (ip), vehicle: saline 96 % of control and 98 % of control | dose: 120.0 mg/kg/injection, schedule: Q01DX009 (ip), vehicle: saline 103 % of control | dose: 150.0 mg/kg/injection, schedule: Q01DX001 (ip), vehicle: carboxymethylcellulose (CMC) 91 % of control | dose: 180.0 mg/kg/injection, schedule: Q01DX009 (ip), vehicle: saline 121 % of control | dose: 300.0 mg/kg/injection, schedule: Q01DX001 (ip), vehicle: carboxymethylcellulose (CMC) 88 % of control

O=[N+]([O-])c1ccc(-c2ccc(-c3ccccc3)cc2)cc1
inactive: dose: 100.0 mg/kg/injection, schedule: Q01DX001 (ip), vehicle: acetone 98 % of control | dose: 100.0 mg/kg/injection, schedule: Q04DX003 (ip), vehicle: acetone 91 % of control | dose: 200.0 mg/kg/injection, schedule: Q01DX001 (ip), vehicle: acetone 95 % of control | dose: 200.0 mg/kg/injection, schedule: Q04DX003 (ip), vehicle: acetone 86 % of control | dose: 400.0 mg/kg/injection, schedule: Q01DX001 (ip), vehicle: acetone 92 % of control | dose: 400.0 mg/kg/injection, schedule: Q04DX003 (ip), vehicle: acetone 89 % of control

CCCCCOC(=O)C1OC1(CC)c1ccccc1 (configuration not stated)
inactive: dose: 100.0 mg/kg/injection, schedule: Q04DX002 (ip), vehicle: saline 97 % of control | dose: 200.0 mg/kg/injection, schedule: Q04DX002 (ip), vehicle: saline 101 % of control | dose: 400.0 mg/kg/injection, schedule: Q04DX002 (ip), vehicle: saline 120 % of control

CCOc1cc(C#N)c(OCC)cc1N
inactive: [5] 103 % of control | [7] 101 % of control

COc1ccc(-n2c(=O)c(N=Nc3ccc(Br)cc3)c(O)n(-c3ccc(C)cc3)c2=S)cc1
inactive: dose: 50.0 mg/kg/injection, schedule: Q01DX001 (ip), vehicle: Klucel (hydroxypropylcellulose) (HPC) 94 % of control | dose: 100.0 mg/kg/injection, schedule: Q01DX001 (ip), vehicle: Klucel (hydroxypropylcellulose) (HPC) 92 % of control | dose: 200.0 mg/kg/injection, schedule: Q01DX001 (ip), vehicle: Klucel (hydroxypropylcellulose) (HPC) 88 % of control

Clc1ccc(Oc2ccc(N3C=Nc4ccc(Oc5ccc(Cl)cc5)cc4C3)cc2)cc1
inactive: dose: 100.0 mg/kg/injection, schedule: Q01DX009 (ip), vehicle: saline with Tween-80 98 % of control | [6] 97 % of control | dose: 200.0 mg/kg/injection, schedule: Q01DX009 (ip), vehicle: saline with Tween-80 96 % of control | [8] 94 % of control | dose: 400.0 mg/kg/injection, schedule: Q01DX009 (ip), vehicle: saline with Tween-80 93 % of control | [10] 89 % of control

N#CC(Cc1ccccc1)(c1ccccc1)c1ccccc1
inactive: [4] 112 % of control | [5] 114 % of control | [7] 89 % of control | [9] 97 % of control

C1CCC(=C(C2CCCC2)C2CCCC2)C1
inactive: dose: 75.0 mg/kg/injection, schedule: Q04DX002 (ip), vehicle: saline with Tween-80 105 % of control | dose: 150.0 mg/kg/injection, schedule: Q04DX002 (ip), vehicle: saline with Tween-80 99 % of control | dose: 300.0 mg/kg/injection, schedule: Q04DX002 (ip), vehicle: saline with Tween-80 99 % of control

Cn1c(=O)oc2ccccc2c1=S
inactive: dose: 100.0 mg/kg/injection, schedule: Q04DX003 (ip), vehicle: saline 96 % of control | dose: 200.0 mg/kg/injection, schedule: Q04DX003 (ip), vehicle: saline 100 % of control | dose: 400.0 mg/kg/injection, schedule: Q04DX003 (ip), vehicle: saline 100 % of control

O=C1C(=O)c2ccc(Br)cc2C(O)=C1C(c1ccccc1)c1ccccc1
inactive: [5] 100 % of control | [7] 106 % of control | [9] 96 % of control

CCCCCC(C)NCC(C)(C)O (configuration not stated)
inactive: dose: 75.0 mg/kg/injection, schedule: Q01DX001 (ip), vehicle: acid diluted with saline 102 % of control

CC(=O)Nc1ccc2c(c1)-c1ccc(F)cc1C2=O
inactive: dose: 100.0 mg/kg/injection, schedule: Q01DX001 (ip), vehicle: carboxymethylcellulose (CMC) 96 % of control | dose: 200.0 mg/kg/injection, schedule: Q01DX001 (ip), vehicle: carboxymethylcellulose (CMC) 103 % of control | dose: 400.0 mg/kg/injection, schedule: Q01DX001 (ip), vehicle: carboxymethylcellulose (CMC) 89 % of control

CC(=O)/C(N=Nc1ccc(S(=O)(=O)c2ccc(N=N/C(C(C)=O)=C(/C)O)cc2)cc1)=C(\C)O
inactive: [6] 100 % of control | [8] 93 % of control | [10] 96 % of control

CC1CCCC1Sc1ccccc1 (configuration not stated)
inactive: [5] 91 % of control | dose: 100.0 mg/kg/injection, schedule: Q01DX009 (ip), vehicle: acetone 99 % of control | [7] 91 % of control | dose: 200.0 mg/kg/injection, schedule: Q01DX009 (ip), vehicle: acetone 106 % of control | [9] 93 % of control | dose: 400.0 mg/kg/injection, schedule: Q01DX009 (ip), vehicle: acetone 92 % of control
